Data taken from US20220267719A1, “METHOD FOR LOADING OF MICROORGANISMS ON MULTIPHASE BIOMATERIALS” (priority 2019, published 2022).

Experiments:
[1] = test system: S. aureus; assay: Agar well diffusion test without BNC; assay type: cell-based, Staphylococcus aureus
Protocol: For the agar diffusion test the OD600 of B. megaterium and B. subtilis was adjusted to 0.1 McFarland using sterilized saline NaCl 0.9%. The OD600 of S. aureus was adjusted to 0.5 McFarland using sterilized saline NaCl 0.9%. 20 μl of S. aureus was spread on the surface of Mueller-Hinton agar plate by a sterilized glass spreader. The wells are […] on the agar plate using the back side of a 1 ml pipette tip. A small volume of Mueller-Hinton agar was melted in boiling water bath, then 100 μl of it was used to close the bottom of each created well. After solidification of the agar in the bottom of the wells, the wells were filled with 100 μl of: Negative control, sterilized saline NaCl 0.9%, Positive control, gentamicin 300 μg/ml, B. megaterium or B. subtilis-free supernatant, B. megaterium or B. subtilis suspension.

[2] = test system: S. aureus; assay: Agar diffusion test with loaded BNC fleeces; assay type: cell-based, Staphylococcus aureus
Protocol: The evaluation of the antibacterial activity of B. subtilis and B. megaterium loaded-BNC against gram-positive S. aureus was determined by an agar diffusion test. Therefore, the bacterial suspensions of B. subtilis and S. aureus were prepared in TSB broth medium as described before. […] 3 BNC fleeces were loaded using B. subtilis suspension in TSB medium, and 3 BNC fleeces were loaded using B. subtilis suspension in saline. Further 3 BNC fleeces were loaded using the B. subtilis free-supernatant, 3 BNC fleeces were loaded with gentamycin as positive control, and 3 BNC fleeces with isotonic saline as negative control. The OD600 of S. aureus was adjusted to 0.5 McFarland using sterilized saline NaCl 0.9% and the optical density spectrophotometer (Biophotometer) was determined. 20 μl of S. aureus was spread on the surface of Mueller-Hinton agar plate by a sterilized glass spreader. The last control and loaded BNC fleeces were added onto surface of the Mueller Hinton agar: 1. Negative control: saline-loaded BNC 2. Positive control: gentamicin-loaded BNC 3. B. subtilis-loaded BNC in TSB medium 4. B. subtilis-loaded BNC in saline 5. B. subtilis-free supernatant-loaded BNC.

For gentamicin [Gentamycin], the “inhibition effect on S. aureus by diffusion test, Without BNC” value [1] was “+ (by detection of inhibition zone > 2 mm)”, the “inhibition effect on S. aureus by diffusion test, on BNC - injection technique” value ([2]; loaded on BNC by injection) was “+ (by detection of inhibition zone > 2 mm)” and the “inhibition effect on S. aureus by diffusion test, on BNC - spray technique” value ([2]; loaded on BNC by spray) was “+ (by detection of inhibition zone > 2 mm)”. The “inhibition effect on S. aureus by diffusion test, on BNC - vortex technique” value ([2]; loaded on BNC by vortex) was “+ (by detection of inhibition zone > 2 mm)”.
